# Laboratory results taken from patent US20240358684A1, “METHOD FOR ENHANCING INNATE IMMUNE RESPONSE” (Kyoto University, priority 2021, published 2024).
# Entries after “also recorded” stand apart in the source; their conditions may differ.
# How the values were obtained:
# CLK1 = molecular target: T1, CLK1 (Homo sapiens, UniProt P49759); experiment: Inhibition confirmation test for CLK (off-chip mobility shift assay); format: biochemical; settings: at 1 μM; read-out: CLK1 inhibitory activity
# T1 construct: Enzyme activity was measured with off-chip mobility shift assay using purified CLK protein
# Experimental: Enzyme activity was measured with off-chip mobility shift assay using purified CLK protein. […] The enzyme reaction was performed at room temperature for 1 hour, and the reaction was terminated by adding QuickScout Screening Assist MSA (Carna Biosciences, Inc.). A substrate peptide and a phosphorylated peptide in the enzyme reaction solution were separated and quantified using the LabChip system (Perkin-Elmer, Waltham, MA, USA), and inhibition of CLK was evaluated by calculating a product ratio using the following formula, the substrate peptide peak height (S), and the phosphorylated peptide peak height (P).
# (§1) (P/(P+S)) • P: product-derived peak • S: substrate-derived peak
# CLK2 = molecular target: T2, CLK2 (Homo sapiens, UniProt P49760); experiment: as above; format: biochemical; settings: at 1 μM; read-out: CLK2 inhibitory activity
# T2 construct: Enzyme activity was measured with off-chip mobility shift assay using purified CLK protein
# Experimental: (§2) Enzyme activity was measured with off-chip mobility shift assay using purified CLK protein. DYRKtide-F peptide (1 μM) was used as a substrate, and a composition of a reaction solution used was as follows (20 mM HEPES (pH7.5), 0.01% Triton X-100, 1 mM DT7, 1% DMSO, and ATP (10 μM for CLK1, 150 μM for CLK2, and 75 μM for CLK3)). The enzyme reaction was performed at room temperature for 1 hour, and the reaction was terminated by adding QuickScout Screening Assist MSA (Carna Biosciences, Inc.). A substrate peptide and a phosphorylated peptide in the enzyme reaction solution were separated and quantified using the LabChip system (Perkin-Elmer, Waltham, MA, USA), and inhibition of CLK was evaluated by calculating a product ratio using the following formula, the substrate peptide peak height (S), and the phosphorylated peptide peak height (P).
# as §1
# CLK3 = molecular target: T3, CLK3 (Homo sapiens, UniProt P49761); experiment: as above; format: biochemical; settings: at 1 μM; read-out: CLK3 inhibitory activity
# T3 construct: Enzyme activity was measured with off-chip mobility shift assay using purified CLK protein
# Experimental: as §2, §1
# [1] = system: OAS1 rs10774671 A-allele splicing; experiment: RT-PCR for OAS1 alternative splicing profile in Calu-3 (A/A allele) cells; format: cell-based, human; settings: for yield of the p44a splice form (RT-PCR) / yield of the p44a splice form compared with other compound treatment: Calu-3, 10 μM, 18 hours (Example 2)
# T1 sequence (P49759 whole entry): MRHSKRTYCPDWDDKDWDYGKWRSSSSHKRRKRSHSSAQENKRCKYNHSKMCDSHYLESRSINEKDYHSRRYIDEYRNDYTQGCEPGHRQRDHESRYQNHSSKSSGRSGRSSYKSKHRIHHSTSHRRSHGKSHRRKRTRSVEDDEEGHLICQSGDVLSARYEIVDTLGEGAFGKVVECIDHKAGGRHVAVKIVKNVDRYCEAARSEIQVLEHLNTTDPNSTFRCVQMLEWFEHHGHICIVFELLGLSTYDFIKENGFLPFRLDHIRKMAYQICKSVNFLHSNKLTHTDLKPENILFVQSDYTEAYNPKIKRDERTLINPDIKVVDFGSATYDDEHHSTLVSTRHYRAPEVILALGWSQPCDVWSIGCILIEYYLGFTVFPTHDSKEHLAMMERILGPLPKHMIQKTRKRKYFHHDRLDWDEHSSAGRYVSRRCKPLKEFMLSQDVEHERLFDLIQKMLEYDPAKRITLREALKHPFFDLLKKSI
# T2 sequence (P49760 whole entry): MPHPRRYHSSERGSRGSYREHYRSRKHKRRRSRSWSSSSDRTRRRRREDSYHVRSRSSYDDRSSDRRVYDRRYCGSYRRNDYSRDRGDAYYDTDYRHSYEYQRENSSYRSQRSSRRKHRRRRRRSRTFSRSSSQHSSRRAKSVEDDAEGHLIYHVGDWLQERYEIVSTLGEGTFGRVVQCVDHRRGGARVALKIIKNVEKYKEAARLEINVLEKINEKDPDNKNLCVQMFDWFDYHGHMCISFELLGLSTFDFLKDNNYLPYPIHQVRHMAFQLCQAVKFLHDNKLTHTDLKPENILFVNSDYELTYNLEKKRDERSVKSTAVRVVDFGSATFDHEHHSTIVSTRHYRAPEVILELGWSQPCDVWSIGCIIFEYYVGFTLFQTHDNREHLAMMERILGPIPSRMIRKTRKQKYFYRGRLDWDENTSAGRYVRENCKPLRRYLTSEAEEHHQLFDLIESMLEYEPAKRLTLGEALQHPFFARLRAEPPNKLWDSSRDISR
# T3 sequence (P49761 whole entry): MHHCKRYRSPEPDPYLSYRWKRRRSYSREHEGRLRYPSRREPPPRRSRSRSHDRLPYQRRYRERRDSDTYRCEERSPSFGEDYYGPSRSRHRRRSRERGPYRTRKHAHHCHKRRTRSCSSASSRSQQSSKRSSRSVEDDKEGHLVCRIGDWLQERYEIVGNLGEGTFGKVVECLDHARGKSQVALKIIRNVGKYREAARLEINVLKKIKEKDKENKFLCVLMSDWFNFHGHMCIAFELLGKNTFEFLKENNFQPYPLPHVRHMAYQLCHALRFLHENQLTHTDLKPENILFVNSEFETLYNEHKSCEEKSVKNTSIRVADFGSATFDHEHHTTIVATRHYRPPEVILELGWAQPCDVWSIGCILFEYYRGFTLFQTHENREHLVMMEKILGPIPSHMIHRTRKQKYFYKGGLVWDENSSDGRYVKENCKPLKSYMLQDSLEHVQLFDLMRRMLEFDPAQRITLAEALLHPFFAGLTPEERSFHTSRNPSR
SMILES,inhibition at 1 µM (CLK1) [%],inhibition at 1 µM (CLK2) [%],inhibition at 1 µM (CLK3) [%],yield of the p44a splice form (RT-PCR) [1],yield of the p44a splice form compared with other compound treatment [1],"yield of p44a splice form (RT-PCR) ([1]; Calu-3, 10 μM or 30 μM, 18 hours (Example 3))"
"c1cncc(-c2ccc3[nH]ncc3c2)c1 [compound 2, 5-pyridin-3-yl-1H-indazole]",98.4,90.5,21.6,increased the yield of the p44a splice form,higher than that in the compound 1 treatment,–
"CCN1/C(=C/C(C)=O)Sc2ccc3occc3c21 [compound 3, 1-(1-ethylfuro[3,2-e][1,3]benzothiazol-2-ylidene)propan-2-one]",102,96.5,32.9,increased the yield of the p44a splice form,higher than that in the compound 1 treatment; also recorded: higher than that in the compound 2 treatment,–
"CCN1/C(=C/C(C)=O)Sc2ccc(OC)cc21 [compound 4, 1-(3-ethyl-5-methoxy-1,3-benzothiazol-2-ylidene)propan-2-one, reference compound]",–,–,–,–,–,increased the yield of p44a splice form
